From ChEMBL document CHEMBL5257151, “Design, synthesis, and pharmacological evaluation of N-(3-carbamoyl-1H-pyrazol-4-yl)-1,3-oxazole-4-carboxamide derivatives as interleukin-1 receptor-associated kinase 4 inhibitors with reduced potential for cytochrome P450 1A2 induction” (Bioorg Med Chem, 2023)
pIC50: −log10 of the molar value.

Assays:
[1] = biological target: T1, Interleukin-1 receptor-associated kinase 4 (Homo sapiens, UniProt Q9NWZ3); assay: Inhibition of human IRAK4 using biotinylated FGLARFSRFAGSSPSQSSMVARTQTVRGT peptide as substrate incubated for 1 hr in presence of ATP by ELISA assay
T1 sequence (Q9NWZ3 whole entry): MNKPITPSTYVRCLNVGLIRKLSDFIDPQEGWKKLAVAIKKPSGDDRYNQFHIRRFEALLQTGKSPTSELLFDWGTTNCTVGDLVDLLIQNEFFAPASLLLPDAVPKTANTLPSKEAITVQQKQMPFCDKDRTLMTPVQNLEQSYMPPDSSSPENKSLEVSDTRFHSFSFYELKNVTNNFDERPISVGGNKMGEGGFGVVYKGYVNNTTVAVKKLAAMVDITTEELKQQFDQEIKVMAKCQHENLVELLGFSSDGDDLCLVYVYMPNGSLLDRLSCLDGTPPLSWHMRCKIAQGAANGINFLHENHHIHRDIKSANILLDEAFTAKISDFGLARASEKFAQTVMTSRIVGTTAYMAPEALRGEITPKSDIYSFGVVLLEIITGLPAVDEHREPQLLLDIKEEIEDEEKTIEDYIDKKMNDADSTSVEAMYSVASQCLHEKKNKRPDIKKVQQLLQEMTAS

CYP1A2 [2] = assay: Induction of CYP1A2 mRNA expression in human HepaRG cells assessed as fold change at 30 uM incubated for 48 hrs; type: ADME, cell-based; conditions: read-out: FC
CYP2C9 = CYP2C9 (Homo sapiens, UniProt P11712); assay: Reversible inhibition of CYP2C9 in human liver microsomes assessed as residual activity at 5 uM using diclofenac as substrate preincubated for 30 mins followed by substrate addition measured after 20 mins by LC-MS/MS analysis relative to control; type: ADME, Microsome; conditions: probe diclofenac, time 50 min, read-out: Activity
Sequence of CYP2C9 (P11712 whole entry): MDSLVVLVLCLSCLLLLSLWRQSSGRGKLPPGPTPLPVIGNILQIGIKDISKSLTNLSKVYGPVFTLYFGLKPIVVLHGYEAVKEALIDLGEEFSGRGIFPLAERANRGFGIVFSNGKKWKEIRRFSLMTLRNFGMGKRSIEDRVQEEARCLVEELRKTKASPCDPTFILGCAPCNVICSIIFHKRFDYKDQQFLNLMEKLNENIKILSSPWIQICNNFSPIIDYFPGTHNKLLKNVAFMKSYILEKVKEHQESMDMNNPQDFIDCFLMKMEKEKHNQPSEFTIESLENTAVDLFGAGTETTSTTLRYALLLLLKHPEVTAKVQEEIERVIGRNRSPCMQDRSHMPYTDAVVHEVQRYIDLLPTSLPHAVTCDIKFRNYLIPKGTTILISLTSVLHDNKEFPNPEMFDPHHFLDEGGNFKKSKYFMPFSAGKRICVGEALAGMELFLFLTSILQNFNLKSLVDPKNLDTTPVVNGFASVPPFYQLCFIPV

CYP1A2 [3] = biological target: T2, CYP1A2 (Homo sapiens, UniProt P05177); assay: Reversible inhibition of CYP1A2 in human liver microsomes assessed as residual activity at 5 uM using phenacetin as substrate preincubated for 30 mins followed by substrate addition measured after 20 mins by LC-MS/MS analysis relative to control; type: ADME, Microsome; conditions: probe phenacetin, time 50 min, read-out: Activity
T2 sequence (P05177 whole entry): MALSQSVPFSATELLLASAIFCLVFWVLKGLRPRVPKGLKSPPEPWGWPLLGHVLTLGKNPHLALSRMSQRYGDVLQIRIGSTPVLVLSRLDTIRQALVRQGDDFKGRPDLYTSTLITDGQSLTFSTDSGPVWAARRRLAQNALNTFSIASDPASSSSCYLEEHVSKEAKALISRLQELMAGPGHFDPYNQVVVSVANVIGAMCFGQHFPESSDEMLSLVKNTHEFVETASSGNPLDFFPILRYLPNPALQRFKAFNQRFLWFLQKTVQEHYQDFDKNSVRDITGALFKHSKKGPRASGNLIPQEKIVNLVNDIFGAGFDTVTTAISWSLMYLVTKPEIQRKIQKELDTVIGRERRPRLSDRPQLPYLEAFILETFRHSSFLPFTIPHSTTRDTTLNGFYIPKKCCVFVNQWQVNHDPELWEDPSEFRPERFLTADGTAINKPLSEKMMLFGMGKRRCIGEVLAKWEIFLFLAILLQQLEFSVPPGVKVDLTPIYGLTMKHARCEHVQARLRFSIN

CYP3A4 [4] = biological target: T3, CYP3A4 (Homo sapiens, UniProt P08684); assay: Reversible inhibition of CYP3A4 in human liver microsomes assessed as residual activity at 5 uM using midazolam as substrate preincubated for 30 mins followed by substrate addition measured after 20 mins by LC-MS/MS analysis relative to control; type: ADME, Microsome; conditions: probe midazolam, time 50 min, read-out: Activity
T3 sequence (P08684 whole entry): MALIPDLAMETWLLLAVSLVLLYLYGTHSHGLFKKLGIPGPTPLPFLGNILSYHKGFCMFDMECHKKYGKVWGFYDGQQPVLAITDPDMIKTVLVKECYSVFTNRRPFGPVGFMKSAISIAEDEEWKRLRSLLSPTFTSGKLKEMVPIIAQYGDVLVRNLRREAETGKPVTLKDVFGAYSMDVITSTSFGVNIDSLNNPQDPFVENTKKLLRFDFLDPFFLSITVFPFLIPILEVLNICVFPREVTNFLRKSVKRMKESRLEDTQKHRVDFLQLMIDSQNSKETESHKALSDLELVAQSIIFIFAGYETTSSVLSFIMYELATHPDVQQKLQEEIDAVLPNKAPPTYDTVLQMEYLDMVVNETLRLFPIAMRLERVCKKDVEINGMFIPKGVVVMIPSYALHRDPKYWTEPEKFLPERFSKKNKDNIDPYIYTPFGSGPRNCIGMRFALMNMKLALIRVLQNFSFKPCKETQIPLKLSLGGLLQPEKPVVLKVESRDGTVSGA

CYP2C8 = biological target: T4, CYP2C8 (Homo sapiens, UniProt P10632); assay: Reversible inhibition of CYP2C8 in human liver microsomes assessed as residual activity at 5 uM using amodiaquine as substrate preincubated for 30 mins followed by substrate addition measured after 20 mins by LC-MS/MS analysis relative to control; type: ADME, Microsome; conditions: probe amodiaquine, time 50 min, read-out: Activity
T4 sequence (P10632 whole entry): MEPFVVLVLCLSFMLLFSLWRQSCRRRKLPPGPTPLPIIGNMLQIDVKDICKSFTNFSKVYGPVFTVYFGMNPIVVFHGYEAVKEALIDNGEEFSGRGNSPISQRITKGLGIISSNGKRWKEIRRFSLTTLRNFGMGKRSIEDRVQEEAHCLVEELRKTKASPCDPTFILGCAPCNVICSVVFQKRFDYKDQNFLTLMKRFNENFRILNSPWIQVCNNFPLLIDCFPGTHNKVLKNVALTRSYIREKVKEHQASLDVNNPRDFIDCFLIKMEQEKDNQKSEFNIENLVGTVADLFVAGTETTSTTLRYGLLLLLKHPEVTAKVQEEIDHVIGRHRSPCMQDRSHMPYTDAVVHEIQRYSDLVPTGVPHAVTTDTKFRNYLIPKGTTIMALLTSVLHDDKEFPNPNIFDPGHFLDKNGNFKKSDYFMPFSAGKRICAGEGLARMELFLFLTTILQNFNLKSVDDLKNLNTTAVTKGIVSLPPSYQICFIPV

CYP3A4 [5] = biological target: T3, CYP3A4; assay: Time dependent inhibition of CYP3A4 in human liver microsomes assessed as residual activity at 5 uM using midazolam as substrate preincubated for 30 mins followed by substrate addition measured after 20 mins by LC-MS/MS analysis relative to control; type: ADME, Microsome; conditions: probe midazolam, read-out: Activity
[6] = Inhibition of IL-1beta stimulated IL-6 production in human A549 cells pre-incubated for 1 hr followed by overnight stimulation by ELISA analysis; type: functional, cell-based
CYP1A2 [7] = assay: Induction of CYP1A2 mRNA expression in human HepaRG cells assessed as fold change at 15 uM incubated for 48 hrs; type: ADME, cell-based; conditions: read-out: FC
CYP1A2 [8] = assay: Induction of CYP1A2 mRNA expression in human HepaRG cells assessed as fold change at 5 uM incubated for 48 hrs; type: ADME, cell-based; conditions: read-out: FC
CYP1A2 [9] = assay: Induction of CYP1A2 mRNA expression in human HepaRG cells assessed as fold change at 10 uM incubated for 48 hrs; type: ADME, cell-based; conditions: read-out: FC
CYP1A2 [10] = assay: Induction of CYP1A2 mRNA expression in human HepaRG cells assessed as fold change at 7.5 uM incubated for 48 hrs; type: ADME, cell-based; conditions: read-out: FC

Work on `Cc1cc(-c2ncc(C(=O)Nc3cn(C4CCOCC4)nc3C(N)=O)o2)ccn1` yielded a pIC50 [1] of 7.10.

Molecule `Cc1cc(-c2nc(C(=O)Nc3cn(C4CCOC4)nc3C(N)=O)co2)ccn1` (centres undefined) has a pIC50 [1] of 7.52 and a fold induction at 48 h, 30 µM (CYP1A2 [2]) of 10.

`CCn1cc(NC(=O)c2csc(-c3ccncc3)n2)c(C(N)=O)n1` gave an activity at 20 min, 5 µM (CYP2C9) of 56%, an activity at 20 min, 5 µM (CYP1A2 [3]) of 4% and a pIC50 [1] of 7.70. It also gave an activity at 20 min, 5 µM (CYP3A4 [4]) of 74%, an activity at 20 min, 5 µM (CYP2C8) of 70% and an activity at 20 min, 5 µM (CYP3A4 [5]) of 78%.

`Cc1cc(-c2nc(C(=O)Nc3c[nH]nc3C(N)=O)co2)ccn1` gave a pIC50 [1] of 6.92.

Work on `Cn1cc(-c2nc(C(=O)Nc3cn(C4CCOCC4)nc3C(N)=O)co2)ccc1=O` yielded a pIC50 [1] of 7.49.

For `NC(=O)c1nn(C2CCOCC2)cc1NC(=O)c1coc(-c2ccnc(CO)c2)n1`, the pIC50 [1] was 7.28.

`CCn1cc(NC(=O)c2coc(-c3ccncc3)n2)c(C(N)=O)n1` gave an activity at 20 min, 5 µM (CYP2C9) of 59%, an activity at 20 min, 5 µM (CYP1A2 [3]) of 6% and an activity at 20 min, 5 µM (CYP3A4 [4]) of 70%. The activity at 20 min, 5 µM (CYP2C8) was 103% and the activity at 20 min, 5 µM (CYP3A4 [5]) was 89%.

Work on `CC(=O)N1CCC(n2cc(NC(=O)c3coc(-c4ccnc(C)c4)n3)c(C(N)=O)n2)CC1` yielded a pIC50 [6] of 6.34, a pIC50 [1] of 7.77 and a fold induction at 48 h, 15 µM (CYP1A2 [7]) of 3.2.

Molecule `Cc1cc(-c2nc(C(=O)Nc3cn(CC4CCOC4)nc3C(N)=O)co2)ccn1` (centres undefined) has a pIC50 [1] of 7.47 and a fold induction at 48 h, 15 µM (CYP1A2 [7]) of 4.5.

`Cc1cc(-c2nc(C(=O)Nc3cn(CC(C)C)nc3C(N)=O)co2)ccn1` showed a pIC50 [1] of 7.32 and a fold induction at 48 h, 15 µM (CYP1A2 [7]) of 4.

With `Cc1cc(-c2ccc(C(=O)Nc3cn(C4CCOCC4)nc3C(N)=O)o2)ccn1` the pIC50 [1] was 7.89.

For `CCc1cc(-c2nc(C(=O)Nc3cn(C4CCOCC4)nc3C(N)=O)co2)ccn1`, the pIC50 [1] was 7.85.

For `CCCCn1cc(NC(=O)c2coc(-c3ccnc(C)c3)n2)c(C(N)=O)n1`, the fold induction at 48 h, 5 µM (CYP1A2 [8]) was 8.9 and the pIC50 [1] was 7.60.

`NC(=O)c1nn(C2CCOCC2)cc1NC(=O)c1coc(-c2ccc(F)cc2)n1` showed a pIC50 [1] of 7.59.

`Cc1cc(-c2nc(C(=O)Nc3cn(C4CCN(C)CC4)nc3C(N)=O)co2)ccn1` showed a pIC50 [6] of 6.35, a pIC50 [1] of 7.74 and a fold induction at 48 h, 15 µM (CYP1A2 [7]) of 3.6.

`NC(=O)c1nn(C2CCOCC2)cc1NC(=O)c1coc(-c2ccnc(C3CC3)c2)n1` gave a pIC50 [1] of 7.17.

`COCCn1cc(NC(=O)c2coc(-c3ccnc(C)c3)n2)c(C(N)=O)n1` showed a fold induction at 48 h, 10 µM (CYP1A2 [9]) of 15 and a pIC50 [1] of 7.74.

For `Cc1cc(-n2ccc(C(=O)Nc3cn(C4CCOCC4)nc3C(N)=O)n2)ccn1`, the pIC50 [1] was 7.62.

In the case of `Cc1cc(-c2nc(C(=O)Nc3cn(CC4(C)COC4)nc3C(N)=O)co2)ccn1`, the pIC50 [1] was 6.82.

For `Cc1cc(-c2nc(C(=O)Nc3cn(C)nc3C(N)=O)co2)ccn1`, the fold induction at 48 h, 7.5 µM (CYP1A2 [10]) was 21 and the pIC50 [1] was 7.80.

With `Cc1cc(-c2nc(C(=O)Nc3cn(C4CCS(=O)(=O)CC4)nc3C(N)=O)co2)ccn1` the pIC50 [6] was 5.80 and the fold induction at 48 h, 30 µM (CYP1A2 [2]) was 3.5.

In the case of `NC(=O)c1nn(C2CCOCC2)cc1NC(=O)c1coc(-c2ccncc2F)n1`, the pIC50 [1] was 7.09.

In the case of `CCn1cc(NC(=O)c2coc(-c3ccnc(C)c3)n2)c(C(N)=O)n1`, the fold induction at 48 h, 5 µM (CYP1A2 [8]) was 16, the activity at 20 min, 5 µM (CYP2C9) was 98% and the activity at 20 min, 5 µM (CYP1A2 [3]) was 47%. For the same molecule, the pIC50 [1] was 7.80, the activity at 20 min, 5 µM (CYP3A4 [4]) was 100% and the activity at 20 min, 5 µM (CYP2C8) was 103%. It also gave an activity at 20 min, 5 µM (CYP3A4 [5]) of 108%.
